In patent US10308655B2, “Method of treating Crohn's disease comprising a TLR2 antagonist” (AJOU UNIVERSITY INDUSTRY-ACADEMIC COOPERATION FOUNDATION, priority 2015, dated 2019):

Each molecule was assayed against T1, TLR2 (Homo sapiens, UniProt O60603) (assay: Pam3CSK4-induced IL-8 secretion in HEK293-TLR2 cells (IL-8 ELISA)). Conditions: compound 1 hour then co-treated with 50 nM Pam3CSK4, FIG. 15.
T1 construct: host or cells: HEK293-TLR2
Assay type: cell-based
Procedure: HEK293-TLR2 (expressed at endogenous levels of TLR1) and HEK293-Null cell lines were cultured in 96-well tissue culture plates (BD Biosciences) at a density of 1×10^4 cells/wells, 37° C., 95% air and 5% CO2 for 24 hours. In order to determine the agonist activity, a cell stimulation was achieved by treatment with 50 μM of compound and 50 nM of Pam3CSK4 (Invivogen, San Diego, Calif., USA). In order to determine the antagonist activity, cells were treated with various concentrations of compound for 1 hour and then co-treated with 50 nM of Pam3CSK4. The next day, IL-8 secretion was quantified by human IL-8 ELISA Ready-SET-Go! ® (Second generation) kit (eBioscience, San Diego, Calif., USA) according to the method of the manufacturer's guide, and the quantified results are illustrated in FIG. 15.
For the dose-dependent analysis of the top three compounds (S06690562, S01688300, S01382085) among the six compounds, the concentrations of the three compounds were varied to 12.5, 25, and 50 μM, and the secretion amount of IL-8 was analyzed as the above method. The results are illustrated in FIG. 16.

T1 sequence (O60603 21-784): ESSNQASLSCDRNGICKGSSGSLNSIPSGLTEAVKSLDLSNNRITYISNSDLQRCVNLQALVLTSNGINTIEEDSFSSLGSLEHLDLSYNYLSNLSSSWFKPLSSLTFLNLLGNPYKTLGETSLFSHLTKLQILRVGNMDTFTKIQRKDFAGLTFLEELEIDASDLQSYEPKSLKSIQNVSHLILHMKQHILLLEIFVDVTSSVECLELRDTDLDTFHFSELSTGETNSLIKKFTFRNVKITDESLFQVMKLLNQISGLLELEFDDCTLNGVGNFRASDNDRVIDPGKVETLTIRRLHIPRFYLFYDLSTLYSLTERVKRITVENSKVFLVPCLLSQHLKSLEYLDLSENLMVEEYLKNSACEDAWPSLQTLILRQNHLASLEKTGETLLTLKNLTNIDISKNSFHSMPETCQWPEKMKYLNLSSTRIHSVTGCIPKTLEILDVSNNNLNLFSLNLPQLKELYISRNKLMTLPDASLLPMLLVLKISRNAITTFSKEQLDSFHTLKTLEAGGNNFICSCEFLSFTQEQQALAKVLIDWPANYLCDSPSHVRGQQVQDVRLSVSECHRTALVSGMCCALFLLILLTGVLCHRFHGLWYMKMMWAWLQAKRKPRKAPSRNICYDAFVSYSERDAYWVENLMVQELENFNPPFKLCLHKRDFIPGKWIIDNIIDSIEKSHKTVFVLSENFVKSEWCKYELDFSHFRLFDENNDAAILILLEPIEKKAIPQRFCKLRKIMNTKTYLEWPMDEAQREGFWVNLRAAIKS

Row | Pam3CSK4-induced IL-8 secretion amount | SMILES
1 | greatly reduced | COC(=O)c1c(NC(=O)NCCN2CCOCC2)sc2c1CCC2 [Compound S01382085]
2 | greatly reduced | CCN(Cc1ccncc1)Cc1cccc(OCC(O)CN2CCC(O)CC2)c1 (centres unmarked) [Compound S01688300]
3 | greatly reduced | Cc1cc(C)c(NC(=O)CNC(=O)CN(C)CC(=O)NCC(F)(F)F)c(C)c1 [Compound S06690562]
4 | greatly reduced | CC1CCCN(C(C)CNC(=O)CCNC(=O)C2CC2C)C1 (centres unmarked) [Compound S02276077]

Row | SMILES | Pam3CSK4-induced IL-8 secretion amount
5 | CC(C)Oc1cccc(CC(=O)N2CCCN(CC(N)=O)CC2)c1 [Compound S06696686] | greatly reduced
